pEC50: −log10 of the molar value. Converted amounts (≈) assume the structure as drawn.
Assays:
[1] = Hygroscopicity by gravimetric (GVS) or dynamic (DVS) vapour sorption; type: physicochemical; settings: for % Mass increase: at 90% RH, 25° C., GVS (camphorates, camsylate), DVS (mandelate); for Hygroscopicity (in words): from % mass increase at 90% RH
Description: Typically, approximately 10-20 mg of sample was placed into a mesh vapour sorption balance pan and loaded into an IGASorp Moisture Sorption Analyser balance by Hiden Analytical. The sample was subjected to a ramping profile from 40-90% relative humidity (RH) at 10% increments, maintaining the sample at each step until a stable weight had been achieved (98% step completion, minimum step length 30 minutes, maximum step length 60 minutes) at 25° C. After completion of the sorption cycle, the sample was dried using the same procedure to 0% RH, and finally taken back to the starting point of 40% RH. Two cycles were performed. The weight change during the sorption/desorption cycles were plotted, allowing for the hygroscopic nature of the sample to be determined.
Typically, approximately 10 mg of sample was placed into a mesh vapor sorption balance pan and loaded into a DVS-1/DVS Intrinsic/DVS Advantage dynamic vapor sorption balance by Surface Measurement Systems. The sample was subjected to a ramping profile from 40-90% relative humidity (RH) at 10% increments, maintaining the sample at each step until a stable weight had been achieved (dm/dt 0.004%, minimum step length 30 min, maximum step length 500 min) at 25° C. After completion of the sorption cycle, the sample was dried using the same procedure to 0% RH and then a second sorption cycle back to 40% RH. Two cycles were performed. The weight change during the sorption/desorption cycles were plotted, allowing for the hygroscopic nature of the sample to be determined.
GVS was performed on the crystalline solids produced in Examples land 3. DVS was performed on the crystalline solids produced in Example 2. Table 6 below summarizes the % mass increase observed at 90% RH for the samples.

[2] = for Solubility Water / Solubility pH 1 / Solubility pH 4.5 / Solubility pH 6.8: 24 h
Description: (§1) In an initial procedure (performed in triplicate), the salts were added in small aliquots to deionised water or to buffer solutions (10 mL) until saturation was achieved (˜20 mg was initially added), and the resulting slurry was shaken at 37° C. for 24 h. The following buffers (50 mM in each case) were used: • pH 1 25 mL KCl solution (1.49 g dissolved in 100 mL water) and 42.5 mL HCl solution (1.66 mL of concentrated HCl (˜37%) made up to 100 mL with water) were added together and made up to 100 mL with water; • pH 4.5 anhydrous sodium acetate (1.07 g) was dissolved in water (about 150 mL) before adding 5.9 mL acetic acid solution (11.6 mL glacial acetic acid made up to 100 mL with water). The resulting solution was made up to 500 mL with water; and • pH 6.8 25 mL of KH2PO4 solution (2.72 g dissolved in about 80 mL water and made up to 100 mL with water) and 11.2 mL of NaOH solution (800 mg of sodium hydroxide was dissolved and diluted to 100 mL with water) were added together and made up to 100 mL with water.
(§2) Any solids which were isolated by filtration were assessed by XRPD to determine whether the form of the material had changed.
(§3) The solubility assessment of these samples was repeated using the following procedure (samples prepared in triplicate):
(§4) The appropriate salt (30 mg) was weighed into a vial and water or buffer solution (1 mL) was added. The samples were shaken at 37° C. for 24 h. After 1 h and after about 17 h, further salt was added to the mandelate samples (except those in pH 1 buffer solution) to give an approximate 50-60 mg of solids. […] The samples were analysed as described above.

[3] = system: cancer cells having mutant BRCA1 and BRCA2; settings: read-out: inhibition of proliferation CC50; cited from earlier work
PARP activity = settings: read-out: inhibition of PARP activity EC50; whole cell assay; cited from earlier work
[4] = drug substance; cited from earlier work
physchem = settings: 37 °C, thermodynamic from solid
Description: as §1, §2, §3, §4

| Molecule | % Mass increase [1] [%] | Solubility Water [2] [µg/mL] | Solubility pH 1 [2] [mg/mL] | Solubility pH 4.5 [2] [mg/mL] | Solubility pH 6.8 [2] [mg/mL] | Hygroscopicity (in words) [1] | further results |
| --- | --- | --- | --- | --- | --- | --- | --- |
| NC(=O)c1cccc2cn(-c3ccc(C4CCCNC4)cc3)nc12 [(+)-Camphorate, 2-{4-[(3S)-piperidin-3-yl]phenyl}-2H-indazole-7-carboxamide (niraparib) (1R,3S)-(+)-camphorate] | ~0.3 | 200 (≈ 0.624 mM) | 21.4 | 0.3 | 1.2 | – | – |
| NC(=O)c1cccc2cn(-c3ccc(C4CCCNC4)cc3)nc12 [(−)-Camphorate, 2-{4-[(3S)-piperidin-3-yl]phenyl}-2H-indazole-7-carboxamide (niraparib) (1S,3R)-(−)-camphorate] | ~0.2 | – | – | – | – | – | – |
| NC(=O)c1cccc2cn(-c3ccc(C4CCCNC4)cc3)nc12 [Camsylate, 2-{4-[(3S)-piperidin-3-yl]phenyl}-2H-indazole-7-carboxamide (niraparib) (1S)-(+)-camsylate] | ~1.3 | 5900 (≈ 18.4 mM) | 11.5 | 7.1 | 1.7 | slightly hygroscopic | – |
| NC(=O)c1cccc2cn(-c3ccc(C4CCCNC4)cc3)nc12 [Mandelate, 2-{4-[(3S)-piperidin-3-yl]phenyl}-2H-indazole-7-carboxamide (niraparib) (R)-(−)-mandelate] | ~0.07 | 45400 (≈ 142 mM) | 163.1 | 53.8 | 7.8 | not hygroscopic | – |
| NC(=O)c1cccc2cn(-c3ccc([C@@H]4CCCNC4)cc3)nc12 [Niraparib, 2-{4-[(3S)-piperidin-3-yl]phenyl}-2H-indazole-7-carboxamide] | – | – | – | – | – | – | CC50 [3]: 10 to 100 nM; pEC50 (PARP activity): 8.40 |
| NC(=O)c1cccc2cn(-c3ccc([C@@H]4CCCNC4)cc3)nc12 [Tosylate, 2-{4-[(3S)-piperidin-3-yl]phenyl}-2H-indazole-7-carboxamide 4-methylbenzenesulfonate hydrate 1:1:1] | – | – | – | – | – | – | Aqueous solubility (background statement) [4]: low aqueous solubility; Hygroscopicity (background statement) [4]: non-hygroscopic; solubility at 24 h (physchem; pH 1, simulated gastric fluid, Solubility pH 1): 900 µg/mL; solubility at 24 h (physchem; pH 6.8, aqueous buffer, Solubility pH 6.8): 900 µg/mL; solubility at 24 h (physchem; water, Solubility Water): 500 µg/mL |
| camphorate | – | – | – | – | – | not hygroscopic | Solubility (in words, reading of Table 8) ([2]; comparison with tosylate salt, especially in low pH media): greater solubility than the tosylate salt |
